# Laboratory results taken from PMC10714400, “Antimicrobial Peptide–Peptoid Hybrids with and without Membrane Disruption” (ACS Infectious Diseases, 2023).
# Like-named read-outs stand apart in the source and are kept apart here. Where a SMILES comes first, the peptide text is derived from it. [ ]: non-standard residue; d: D form. Nlys = NCCCCNCC(=O)O
# Experiments:
# [1] = Circular dichroism, α-helical content; assay type: physicochemical; settings: 0.1 mg/mL; for CD %α with 5 mM DPC: 10 mM phosphate buffer pH 7.4, 5 mM DPC; for CD %α with 20% TFE: 10 mM phosphate buffer pH 7.4, 20% TFE
# S. maltophilia = test system: S. maltophilia
# Summary of the method: (§1)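 MIC taken visually after MTT staining (20–30 min, RT) as the lowest compound concentration preventing growth, i.e. yellow wells. Inoculum ~5 × 10^5 CFU/well in MH broth, 37 °C static for ca. 18 h; polymyxin B control started at 16 μg/mL.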
# P. aeruginosa PA14 = test system: P. aeruginosa PA14
# Summary of the method: as §1
# B. cenocepacia = settings: pH 7.4
# Summary of the method: as §1
# S. aureus Newman = settings: Newman
# Summary of the method: as §1
# S. epidermis = test system: S. epidermis
# Summary of the method: as §1
# [2] = test system: ZEM-1A (clinical MDR P. aeruginosa isolate)
# Summary of the method: as §1
# E. coli W3110 = test system: E. coli W3110
# Summary of the method: as §1
# PA14 4.13 (phoQ) = test system: PA14 4.13 (phoQ)
# Summary of the method: as §1
# S. aureus COL (MRSA) = test system: S. aureus COL (MRSA)
# Summary of the method: as §1
# PA14 2P4 (pmrB) = test system: PA14 2P4 (pmrB)
# Summary of the method: as §1
# E. cloacae = test system: E. cloacae
# Summary of the method: as §1
# [3] = test system: ZEM9A (clinical MDR P. aeruginosa isolate)
# Summary of the method: as §1
# A. baumannii ATCC19606 = test system: A. baumannii ATCC19606
# Summary of the method: (§2)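 MTT added (20–30 min, room temperature); MIC read by eye as lowest concentration inhibiting visible growth (yellow). Polymyxin B positive control from 16 μg/mL.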
# PA14 4.18 (pmrB) = test system: PA14 4.18 (pmrB)
# Summary of the method: as §1
# P. aeruginosa PAO1 = test system: P. aeruginosa PAO1
# Summary of the method: as §1
# K. pneumoniae OXA-48 = test system: K. pneumoniae OXA-48
# Summary of the method: as §1
# K. pneumoniae NCTC418 = test system: K. pneumoniae NCTC418
# Summary of the method: as §2
# [4] = test system: human red blood cells (hRBC); assay: Minimum hemolytic concentration (MHC); assay type: cell-based
# Description: We also measured minimal hemolysis concentrations (MHC) on human red blood cells by serial 2-fold dilution as an indication of toxicity against eukaryotic cells (Table 1).
compound,measurement,setting,value
"CC(C)C[C@H](NC(=O)[C@H](CC(C)C)NC(=O)[C@H](CC(C)C)NC(=O)[C@H](CCCCN)NC(=O)[C@H](CC(C)C)NC(=O)[C@H](CC(C)C)NC(=O)CN(CCCCN)C(=O)[C@H](CC(C)C)NC(=O)[C@H](CC(C)C)NC(=O)CN(CCCCN)C(=O)CNCCCCN)C(N)=O [EB6, kkLLkLLKLLL] (H-[Nlys][Nlys]LL[Nlys]LLKLLL-NH2)",CD %α with 5 mM DPC,"[1]; DichroWeb, Contin-LL",41%
same,CD %α with 20% TFE,"[1]; DichroWeb, Contin-LL",35%
same,CD %α with 5 mM DPC,[1]; Table S2,41%
same,CD %α with 20% TFE,[1]; Table S2,35%
same,"MIC S. maltophilia, full MH at pH 7.4","S. maltophilia; 4 h, pH 7.4",3 ug/mL
same,MIC S. maltophilia,"S. maltophilia; 4 h, pH 8.5",2 to 4 µg/mL
same,MIC S. maltophilia,S. maltophilia; pH 7.4,2 to 4 µg/mL
same,"MIC P. aeruginosa PA14, full MH at pH 7.4","P. aeruginosa PA14; PA14, 4 h, pH 7.4",3 ug/mL
same,MIC P. aeruginosa PA14,"P. aeruginosa PA14; PA14, pH 7.4",2 to 4 µg/mL
same,MIC P. aeruginosa PA14,"P. aeruginosa PA14; PA14, pH 8.5",2 µg/mL
same,"MIC B. cenocepacia, full MH at pH 7.4",B. cenocepacia; 4 h,>32 ug/mL
same,MIC B. cenocepacia,B. cenocepacia,>32 µg/mL
same,"MIC S. aureus Newman, full MH at pH 7.4","S. aureus Newman; 4 h, pH 7.4",8 ug/mL
same,MIC S. aureus Newman,"S. aureus Newman; 4 h, pH 8.5",2 µg/mL
same,MIC S. aureus Newman,S. aureus Newman; pH 7.4,8 µg/mL
same,"MIC S. epidermis, full MH at pH 7.4","S. epidermis; 4 h, pH 7.4",3 ug/mL
same,MIC S. epidermis,"S. epidermis; 4 h, pH 8.5",2 µg/mL
same,MIC S. epidermis,S. epidermis; pH 7.4,2 to 4 µg/mL
same,"MIC P. aeruginosa ZEM-1A, […] MH at pH 8.5","[2]; CSV, […] MH at pH 8.5",3 ug/mL
same,"MIC P. aeruginosa ZEM-1A, full MH at pH 7.4","[2]; CSV, full MH at pH 7.4",2 ug/mL
same,MIC ZEM-1A,"[2]; MH pH 7.4, 16–20 h at 37 °C",2 µg/mL
same,MIC P. aeruginosa ZEM-1A,"[2]; Table S3, […] MH at pH 8.5",2 to 4 µg/mL
same,"MIC E. coli W3110, […] MH at pH 7.4","E. coli W3110; CSV, […] MH at pH 7.4",2 ug/mL
same,"MIC E. coli W3110, […] MH at pH 8.5","E. coli W3110; CSV, […] MH at pH 8.5",2 ug/mL
same,"MIC E. coli W3110, full MH at pH 7.4","E. coli W3110; CSV, full MH at pH 7.4",2 ug/mL
same,MIC E. coli W3110 […] 7.4,"E. coli W3110; Table S2, […] MH, pH 7.4",2 µg/mL
same,MIC E. coli W3110 […] 8.5,"E. coli W3110; Table S2, […] MH, pH 8.5",2 µg/mL
same,MIC E. coli W3110 Full MH 7.4,"E. coli W3110; Table S2, full MH, pH 7.4",2 µg/mL
same,MIC E. coli W3110 Full MH 8.5,"E. coli W3110; Table S2, full MH, pH 8.5",8 µg/mL
same,MIC E. coli W3110 […],"E. coli W3110; diluted MH ([…] MH, pH 8.5) per Table 1 footnote b, 16–20 h at 37 °C",2 µg/mL
same,"MIC P. aeruginosa PA14 4.13, […] MH at pH 8.5","PA14 4.13 (phoQ); CSV, […] MH at pH 8.5",2 ug/mL
same,"MIC P. aeruginosa PA14 4.13, full MH at pH 7.4","PA14 4.13 (phoQ); CSV, full MH at pH 7.4",4 ug/mL
same,MIC PA14 4.13 (phoQ),"PA14 4.13 (phoQ); MH pH 7.4, 16–20 h at 37 °C",4 µg/mL
same,MIC P. aeruginosa PA14 4.13,"PA14 4.13 (phoQ); Table S3, […] MH at pH 8.5",2 µg/mL
same,"MIC S. aureus COL (MRSA), full MH at pH 7.4","S. aureus COL (MRSA); COL, 4 h, pH 7.4",8 ug/mL
same,MIC S. aureus COL (MRSA) […] 7.4,"S. aureus COL (MRSA); Table S2, […] MH, pH 7.4",2 µg/mL
same,MIC S. aureus COL (MRSA) […] 8.5,"S. aureus COL (MRSA); Table S2, […] MH, pH 8.5",2 µg/mL
same,MIC S. aureus COL (MRSA) Full MH 7.4,"S. aureus COL (MRSA); Table S2, full MH, pH 7.4",8 µg/mL
same,MIC S. aureus COL (MRSA) Full MH 8.5,"S. aureus COL (MRSA); Table S2, full MH, pH 8.5",16 µg/mL
same,"MIC P. aeruginosa PA14 2P4, […] MH at pH 8.5","PA14 2P4 (pmrB); CSV, […] MH at pH 8.5",2 ug/mL
same,"MIC P. aeruginosa PA14 2P4, full MH at pH 7.4","PA14 2P4 (pmrB); CSV, full MH at pH 7.4",32 ug/mL
same,MIC PA14 2P4 (pmrB),"PA14 2P4 (pmrB); MH pH 7.4, 16–20 h at 37 °C",32 µg/mL
same,MIC P. aeruginosa PA14 2P4,"PA14 2P4 (pmrB); Table S3, […] MH at pH 8.5",2 µg/mL
same,"MIC E. cloacae, full MH at pH 7.4","E. cloacae; 4 h, pH 7.4",4 ug/mL
same,MIC E. cloacae,"E. cloacae; Table S3, […] MH at pH 8.5",4 µg/mL
same,"MIC P. aeruginosa ZEM9A, […] MH at pH 8.5","[3]; CSV, […] MH at pH 8.5",2 ug/mL
same,"MIC P. aeruginosa ZEM9A, full MH at pH 7.4","[3]; CSV, full MH at pH 7.4",4 ug/mL
same,MIC ZEM9A,"[3]; MH pH 7.4, 16–20 h at 37 °C",4 µg/mL
same,MIC P. aeruginosa ZEM9A,"[3]; Table S3, […] MH at pH 8.5",2 µg/mL
same,"MIC A. baumannii ATCC19606, full MH at pH 7.4","A. baumannii ATCC19606; ATCC19606, 4 h, pH 7.4",2 ug/mL
same,MIC A. baumannii ATCC19606 […] 7.4,"A. baumannii ATCC19606; Table S2, […] MH, pH 7.4",2 µg/mL
same,MIC A. baumannii ATCC19606 […] 8.5,"A. baumannii ATCC19606; Table S2, […] MH, pH 8.5",2 µg/mL
same,MIC A. baumannii ATCC19606 Full MH 7.4,"A. baumannii ATCC19606; Table S2, full MH, pH 7.4",2 µg/mL
same,MIC A. baumannii ATCC19606 Full MH 8.5,"A. baumannii ATCC19606; Table S2, full MH, pH 8.5",8 µg/mL
same,"MIC P. aeruginosa PA14 4.18, […] MH at pH 8.5","PA14 4.18 (pmrB); CSV, […] MH at pH 8.5",2 ug/mL
same,"MIC P. aeruginosa PA14 4.18, full MH at pH 7.4","PA14 4.18 (pmrB); CSV, full MH at pH 7.4",16 ug/mL
same,MIC PA14 4.18 (pmrB),"PA14 4.18 (pmrB); MH pH 7.4, 16–20 h at 37 °C",16 µg/mL
same,MIC P. aeruginosa PA14 4.18,"PA14 4.18 (pmrB); Table S3, […] MH at pH 8.5",2 µg/mL
same,"MIC P. aeruginosa PAO1, full MH at pH 7.4","P. aeruginosa PAO1; PAO1, 4 h, pH 7.4",4 ug/mL
same,MIC P. aeruginosa PAO1 […] 7.4,"P. aeruginosa PAO1; Table S2, […] MH, pH 7.4",2 µg/mL
same,MIC P. aeruginosa PAO1 […] 8.5,"P. aeruginosa PAO1; Table S2, […] MH, pH 8.5",4 µg/mL
same,MIC P. aeruginosa PAO1 Full MH 7.4,"P. aeruginosa PAO1; Table S2, full MH, pH 7.4",4 µg/mL
same,MIC P. aeruginosa PAO1 Full MH 8.5,"P. aeruginosa PAO1; Table S2, full MH, pH 8.5",16 µg/mL
same,"MIC K. pneumoniae OXA-48, […] MH at pH 8.5","K. pneumoniae OXA-48; CSV, […] MH at pH 8.5",8 ug/mL
same,"MIC K. pneumoniae OXA-48, full MH at pH 7.4","K. pneumoniae OXA-48; CSV, full MH at pH 7.4",8 ug/mL
same,MIC K. pneumoniae OXA-48,"K. pneumoniae OXA-48; Table S3, […] MH at pH 8.5",8 µg/mL
same,"MIC K. pneumoniae NCTC418, full MH at pH 7.4","K. pneumoniae NCTC418; NCTC418, 4 h, pH 7.4",8 ug/mL
same,"MIC K. pneumoniae NCTC418, full MH at pH 8.5","K. pneumoniae NCTC418; NCTC418, 4 h, pH 8.5",12 ug/mL
same,MIC K. pneumoniae NCTC418 Full MH 8.5,"K. pneumoniae NCTC418; NCTC418, 4 h, pH 8.5",8 to 16 µg/mL
same,MIC K. pneumoniae NCTC418 […] 7.4,"K. pneumoniae NCTC418; Table S2, […] MH, pH 7.4",4 µg/mL
same,MIC K. pneumoniae NCTC418 […] 8.5,"K. pneumoniae NCTC418; Table S2, […] MH, pH 8.5",2 µg/mL
same,MIC K. pneumoniae NCTC418 Full MH 7.4,"K. pneumoniae NCTC418; Table S2, full MH, pH 7.4",8 µg/mL
same,MHC,[4],250 µg/mL
same,MHC (hemolysis),[4]; red cells of human,250 to 1000 µg/mL
